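All cell lines were grown in 96-well plates and treated with compound for 48 hours. At the GI50, growth is halved.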 Active and inactive are the calls of the source. Rule as the data show it: active = GI50 up to about 1.1 µM and inactive = higher.
Columns and labels:
Test in all cases: DTP human tumour cell line panel, 48 h
786-0 = tested on: 786-0
SN12C = tested on: SN12C
Hs-578T = tested on: Hs-578T
MDA-N = tested on: MDA-N
UACC-62 = tested on: UACC-62
LOX IMVI = tested on: LOX IMVI
OVCAR-8 = tested on: OVCAR-8
PC-3 = tested on: PC-3
NCI-H23 = tested on: NCI-H23
SF-268 = tested on: SF-268
CAKI-1 = tested on: CAKI-1
BT-549 = tested on: BT-549
M14 = tested on: M14
OVCAR-4 = tested on: OVCAR-4
UO-31 = tested on: UO-31
HOP-62 = tested on: HOP-62
T47D = tested on: T47D
MDA-MB-231 = tested on: MDA-MB-231
SR = tested on: SR
SK-OV-3 = tested on: SK-OV-3
SK-MEL-2 = tested on: SK-MEL-2
HCT-15 = tested on: HCT-15
SF-295 = tested on: SF-295
IGROV-1 = tested on: IGROV-1
SNB-75 = tested on: SNB-75
OVCAR-5 = tested on: OVCAR-5
HOP-92 = tested on: HOP-92
KM12 = tested on: KM12
Malme-3M = tested on: Malme-3M
EKVX = tested on: EKVX
HCC 2998 = tested on: HCC 2998
TK-10 = tested on: TK-10
OVCAR-3 = tested on: OVCAR-3
SK-MEL-28 = tested on: SK-MEL-28
A498 = tested on: A498
UACC-257 = tested on: UACC-257
MCF7 = tested on: MCF7
NCI-H460 = tested on: NCI-H460
RXF 393 = tested on: RXF 393
K562 = tested on: K562
SK-MEL-5 = tested on: SK-MEL-5
HCT-116 = tested on: HCT-116
HT-29 = tested on: HT-29
NCI-H226 = tested on: NCI-H226
SF-539 = tested on: SF-539
NCI/ADR-RES = tested on: NCI/ADR-RES
A549 = tested on: A549
SW-620 = tested on: SW-620
MDA-MB-435 = tested on: MDA-MB-435
DU-145 = tested on: DU-145
NCI-H522 = tested on: NCI-H522
COLO 205 = tested on: COLO 205
U-251 = tested on: U-251
ACHN = tested on: ACHN
RPMI-8226 = tested on: RPMI-8226
SNB-19 = tested on: SNB-19
HL-60 = tested on: HL-60
CCRF-CEM = tested on: CCRF-CEM
MOLT-4 = tested on: MOLT-4

Compound: COc1cccc2[nH]c(-c3ccccn3)nc12
- GI50 (786-0): > 100 µM (inactive)
- GI50 (SN12C): > 100 µM (inactive)
- GI50 (Hs-578T): 68.9 µM (inactive)
- GI50 (MDA-N): > 100 µM (inactive)
- GI50 (UACC-62): > 100 µM (inactive)
- GI50 (LOX IMVI): > 100 µM (inactive)
- GI50 (OVCAR-8): > 100 µM (inactive)
- GI50 (PC-3): > 100 µM (inactive)
- GI50 (NCI-H23): > 100 µM (inactive)
- GI50 (SF-268): 72.4 µM (inactive)
- GI50 (CAKI-1): 77.6 µM (inactive)
- GI50 (BT-549): > 100 µM (inactive)
- GI50 (M14): > 100 µM (inactive)
- GI50 (OVCAR-4): > 100 µM (inactive)
- GI50 (UO-31): 44.8 µM (inactive)
- GI50 (HOP-62): 74 µM (inactive)
- GI50 (T47D): > 100 µM (inactive)
- GI50 (MDA-MB-231): > 100 µM (inactive)
- GI50 (SR): > 100 µM (inactive)
- GI50 (SK-OV-3): > 100 µM (inactive)
- GI50 (SK-MEL-2): > 100 µM (inactive)
- GI50 (HCT-15): 55.7 µM
- GI50 (SF-295): 52.6 µM (inactive)
- GI50 (IGROV-1): > 100 µM (inactive)
- GI50 (SNB-75): > 100 µM (inactive)
- GI50 (OVCAR-5): > 100 µM (inactive)
- GI50 (HOP-92): > 100 µM (inactive)
- GI50 (KM12): > 100 µM (inactive)
- GI50 (Malme-3M): > 100 µM (inactive)
- GI50 (EKVX): > 100 µM (inactive)
- GI50 (HCC 2998): > 100 µM (inactive)
- GI50 (TK-10): > 100 µM (inactive)
- GI50 (OVCAR-3): 55.7 µM (inactive)
- GI50 (SK-MEL-28): > 100 µM (inactive)
- GI50 (A498): > 100 µM (inactive)
- GI50 (UACC-257): > 100 µM (inactive)
- GI50 (MCF7): > 100 µM (inactive)
- GI50 (NCI-H460): 86.7 µM (inactive)
- GI50 (RXF 393): > 100 µM (inactive)
- GI50 (K562): > 100 µM (inactive)
- GI50 (SK-MEL-5): > 100 µM (inactive)
- GI50 (HCT-116): > 100 µM (inactive)
- GI50 (HT-29): > 100 µM (inactive)
- GI50 (NCI-H226): > 100 µM (inactive)
- GI50 (SF-539): > 100 µM (inactive)
- GI50 (NCI/ADR-RES): 14.3 µM (inactive)
- GI50 (A549): > 100 µM (inactive)
- GI50 (SW-620): > 100 µM (inactive)
- GI50 (MDA-MB-435): > 100 µM (inactive)
- GI50 (DU-145): > 100 µM (inactive)
- GI50 (NCI-H522): 48.9 µM (inactive)
- GI50 (COLO 205): > 100 µM (inactive)
- GI50 (U-251): > 100 µM (inactive)
- GI50 (ACHN): 56.2 µM (inactive)
- GI50 (RPMI-8226): 32.4 µM (inactive)
- GI50 (SNB-19): > 100 µM (inactive)

Compound: O=C(O)c1ccc([N+](=O)[O-])c2cc3cnccc3nc12
- GI50 (SN12C): 16.3 µM (inactive)
- GI50 (Hs-578T): 35 µM (inactive)
- GI50 (MDA-N): 20.6 µM (inactive)
- GI50 (UACC-62): 12.4 µM (inactive)
- GI50 (OVCAR-8): 22.4 µM (inactive)
- GI50 (PC-3): 15.5 µM (inactive)
- GI50 (NCI-H23): 24.6 µM (inactive)
- GI50 (CAKI-1): > 10 µM (inactive)
- GI50 (BT-549): 19.1 µM (inactive)
- GI50 (M14): 17.8 µM (inactive)
- GI50 (UO-31): 23.3 µM (inactive)
- GI50 (HOP-62): 31.6 µM (inactive)
- GI50 (T47D): 18.6 µM (inactive)
- GI50 (MDA-MB-231): 19.4 µM (inactive)
- GI50 (SR): 43.2 µM (inactive)
- GI50 (HL-60): > 100 µM (inactive)
- GI50 (SK-OV-3): 56.9 µM (inactive)
- GI50 (SK-MEL-2): 17.9 µM (inactive)
- GI50 (HCT-15): 20.1 µM
- GI50 (SF-295): 43.5 µM (inactive)
- GI50 (IGROV-1): 34.7 µM (inactive)
- GI50 (SNB-75): 19.3 µM (inactive)
- GI50 (OVCAR-5): 33.7 µM (inactive)
- GI50 (HOP-92): 30.1 µM (inactive)
- GI50 (KM12): 22.4 µM (inactive)
- GI50 (Malme-3M): 15.2 µM (inactive)
- GI50 (HCC 2998): 22.3 µM (inactive)
- GI50 (OVCAR-3): 21.2 µM (inactive)
- GI50 (SK-MEL-28): 18.6 µM (inactive)
- GI50 (A498): 70 µM (inactive)
- GI50 (MCF7): 19.3 µM (inactive)
- GI50 (NCI-H460): 38.2 µM (inactive)
- GI50 (RXF 393): 27.1 µM (inactive)
- GI50 (K562): 5.78 µM (inactive)
- GI50 (SK-MEL-5): 19.1 µM (inactive)
- GI50 (HCT-116): 18.4 µM (inactive)
- GI50 (HT-29): 22.6 µM (inactive)
- GI50 (NCI-H226): 30.3 µM (inactive)
- GI50 (NCI/ADR-RES): 25.9 µM (inactive)
- GI50 (MDA-MB-435): 26.9 µM (inactive)
- GI50 (CCRF-CEM): 2.31 µM (inactive)
- GI50 (MOLT-4): 3.91 µM (inactive)
- GI50 (DU-145): 33 µM (inactive)
- GI50 (NCI-H522): 13.4 µM (inactive)
- GI50 (COLO 205): 21.5 µM (inactive)
- GI50 (U-251): 19.9 µM (inactive)
- GI50 (RPMI-8226): 39.7 µM (inactive)
- GI50 (SNB-19): > 10 µM (inactive)

Compound: COC(=O)CC(=O)Nc1sccc1S(=O)(=O)c1ccccc1
- GI50 (786-0): 50.5 µM (inactive)
- GI50 (SN12C): > 100 µM (inactive)
- GI50 (Hs-578T): > 100 µM (inactive)
- GI50 (MDA-N): 35.2 µM (inactive)
- GI50 (UACC-62): 49.1 µM (inactive)
- GI50 (OVCAR-8): > 100 µM (inactive)
- GI50 (PC-3): 34.4 µM (inactive)
- GI50 (NCI-H23): > 100 µM (inactive)
- GI50 (SF-268): > 100 µM (inactive)
- GI50 (CAKI-1): > 100 µM (inactive)
- GI50 (BT-549): 27.5 µM (inactive)
- GI50 (M14): 27 µM (inactive)
- GI50 (OVCAR-4): 54.3 µM (inactive)
- GI50 (UO-31): 40.5 µM (inactive)
- GI50 (T47D): > 100 µM (inactive)
- GI50 (MDA-MB-231): > 100 µM (inactive)
- GI50 (SR): > 100 µM (inactive)
- GI50 (HL-60): > 100 µM (inactive)
- GI50 (SK-OV-3): > 100 µM (inactive)
- GI50 (SK-MEL-2): 66.2 µM (inactive)
- GI50 (HCT-15): 27.2 µM
- GI50 (SF-295): > 100 µM (inactive)
- GI50 (IGROV-1): > 100 µM (inactive)
- GI50 (SNB-75): > 100 µM (inactive)
- GI50 (OVCAR-5): > 100 µM (inactive)
- GI50 (HOP-92): > 100 µM (inactive)
- GI50 (KM12): 94.8 µM (inactive)
- GI50 (Malme-3M): > 100 µM (inactive)
- GI50 (EKVX): > 100 µM (inactive)
- GI50 (HCC 2998): 15.8 µM (inactive)
- GI50 (TK-10): 65.9 µM (inactive)
- GI50 (OVCAR-3): 16.4 µM (inactive)
- GI50 (SK-MEL-28): > 100 µM (inactive)
- GI50 (A498): > 100 µM (inactive)
- GI50 (UACC-257): 67.1 µM (inactive)
- GI50 (MCF7): 65.8 µM (inactive)
- GI50 (NCI-H460): > 100 µM (inactive)
- GI50 (RXF 393): 44.4 µM (inactive)
- GI50 (K562): 80.7 µM (inactive)
- GI50 (SK-MEL-5): > 100 µM (inactive)
- GI50 (HCT-116): > 100 µM (inactive)
- GI50 (HT-29): > 100 µM (inactive)
- GI50 (NCI-H226): 40.3 µM (inactive)
- GI50 (SF-539): 35.1 µM (inactive)
- GI50 (NCI/ADR-RES): > 100 µM (inactive)
- GI50 (A549): > 100 µM (inactive)
- GI50 (SW-620): > 100 µM (inactive)
- GI50 (MDA-MB-435): > 100 µM (inactive)
- GI50 (CCRF-CEM): > 100 µM (inactive)
- GI50 (MOLT-4): > 100 µM (inactive)
- GI50 (DU-145): 71.3 µM (inactive)
- GI50 (NCI-H522): 46.9 µM (inactive)
- GI50 (COLO 205): > 100 µM (inactive)
- GI50 (U-251): > 100 µM (inactive)
- GI50 (ACHN): > 100 µM (inactive)
- GI50 (RPMI-8226): > 100 µM (inactive)
- GI50 (SNB-19): > 100 µM (inactive)

Source: ChEMBL document CHEMBL1201862, “PubChem BioAssay data set” (2004)
